# Measurements reported in patent publication US10167259B2, “Allosteric inhibitors of proteasome and methods of use thereof” (THE BOARD OF REGENTS OF THE UNIVERSITY OF TEXAS SYSTEM, priority 2013, dated 2019).
# What was measured:
# [1] = test system: chymotrypsin-like activity of the core particle (CP; 20S); assay: Inhibition of chymotrypsin-like peptidase activity of the proteasome core particle
# Solubility in solvents = assay type: physicochemical
# [2] = test system: proteasome chymotrypsin-like activity in Mcf7 lysate; assay: Total chymotrypsin-like activity of the proteasome in cell lysates; assay type: biochemical
# Method: (§1) The in vitro effects of the compound B1 are also detectable in cell lysates (FIGS. 3A-E). The total chymotrypsin-like activity of the proteasome in the Mcf7 and Mcf10A lysates was measured. […] Also, B1 appears to be stable in the presence of the whole cell lysate or the purified core particle (FIG. 3C).
# mTOR = mTOR (Homo sapiens, UniProt P42345); assay: mTOR activity in HeLa cells (Western blot with anti-phosphoS6 antibodies); assay type: cell-based; details: up to 100 nM, FIG. 3B
# MDA-MB-231 cells = assay type: cell-based
# [3] = molecular target: core proteasome activated by Rpt2 and Rpt5 tail peptides; assay: Blocking activation of core proteasome chymotrypsin-like activity by Rpt2 and Rpt5 tail peptides; assay type: biochemical
# Description: (§2) The grooves are utilized by Rpt2, Rpt3 and Rpt5 subunits that anchor the regulatory particle to the core particle (Lander, et al., 2009). The anchoring C-terminal tails of Rpt2 and Rpt5 subunits are responsible for core particle gate opening and activation (Lander, et al., 2009). Activation of the core by both Rpt2 and Rpt5 tails is affected by B1 (FIG. 2C). The groove accommodating the C-terminal tail of Rpt2 subunit may be a primary docking place for B1, or B1 may allosterically affect binding of Rpt2 C-terminal tail with an exceptionally high efficiency (FIG. 2D). In vitro reconstruction of the 26S proteasome assembly from the core particle (20S) and regulatory particle (19S) components is attenuated by the treatment with B1 (FIG. 2E).
# 26S proteasome assembly = assay: Inhibition of proteinase activity of the 26S proteasome (casein-BODIPY degradation); details: read-out: IC50, inhibition of proteinase activity of the 26S proteasome assembly; model substrate casein-BODIPY; FIG. 1C
# [4] = molecular target: core particle (20S) activated by regulatory particle 19S; assay: In vitro activation of the core by purified regulatory particle 19S (26S reconstruction); assay type: biochemical; details: FIG. 2E; read-out: IC50, interference with in vitro activation of the core by purified regulatory particle 19S
# Description: as §2
# [5] = Stability in the presence of cell lysate or purified CP (RP-HPLC); assay type: in vitro ADME; details: cell lysate 0.5 mg/ml or purified CP, up to 1 h at 37° C., FIG. 3C
# Method: as §1
# MCF-10A cells = assay type: cell-based; details: 160 nM; FIG. 3D
# [6] = test system: polyubiquitinated proteins in MDA-MB-231 cells; assay: Accumulation of polyubiquitinated proteins in treated MDA-MB-231 cells (Western blot, FK-1); assay type: cell-based; details: MDA-MB-231, 24 hrs, 160 nM; FIG. 3E
# [7] = test system: multiple myeloma RPMI8226 cells; assay: Growth and viability of multiple myeloma RPMI8226 cells; assay type: cell-based; details: B1 alone
# [8] = test system: core proteasome α face (gate conformers); assay: Atomic force microscopy (AFM) imaging of core proteasome gate conformers; details: FIG. 1E
# [9] = test system: post-glutamyl peptidase of the core particle; assay: Inhibition of post-glutamyl peptidase of the core particle; details: allosteric, noncompetitive
# [10] = test system: proteasome (20S and 26S) in multiple myeloma cells; assay: Proteasome activity in lysates of treated cultured multiple myeloma cells; assay type: cell-based
# MCF-7 cells = assay type: cell-based
# [11] = Chou-Talalay, fraction affected >0.3, mostly 1:1 conc. ratio
structure (smiles),measurement,setting,value
COc1cc(CCCNC(=O)C2CCCCN2C(=O)C(=O)C2CCCCC2)cc(OC)c1OC (stereo not drawn) [B2],Inhibitory properties toward the core proteasome after modification of B1,[1],does not erase the inhibitory properties
same,Soluble in,Solubility in solvents,"DMSO, CDCl3"
COc1cc(/C=C/CCCOC(=O)C2CCCCN2C(=O)C(=O)C2CCCCC2)cc(OC)c1OC (stereo not drawn) [B4],Inhibitory properties toward the core proteasome after modification of B1,[1],does not erase the inhibitory properties
COc1cc(CCCCCOC(=O)C2CCCCN2C(=O)C(=O)C2CCCCC2)cc(OC)c1OC (stereo not drawn) [B5],Inhibitory properties toward the core proteasome after modification of B1,[1],does not erase the inhibitory properties
COc1cc(CCCOC(=O)C2CCCCN2C(=O)C(=O)C2CCCCC2)cc(OC)c1OC (stereo not drawn) [B1],Inhibition of total chymotrypsin-like activity of the proteasome in Mcf7 lysate,[2],well pronounced
same,Effect on mTOR activity,mTOR,does not inhibit mTOR activity
same,Cytotoxicity to MDA-MB-231 cells,"MDA-MB-231 cells; B1 alone, 160 nM, 24 hrs, trypan blue exclusion, FIG. 3D",cytotoxic
same,"Combination Index (CI) with bortezomib, MDA-MB-231",MDA-MB-231 cells; [11],below 1
same,IC50,[3]; FIG. 2C,~2 nM
same,Blocking activation of the core by the Rpt2 tail,"[3]; tail present at high, micromolar-range concentrations, FIG. 2D",exceptionally effective
same,IC50,26S proteasome assembly,41 nM
same,IC50,[4],7.8 nM
same,Stability in the presence of cell lysate or purified CP,[5],remains intact
same,Combined effect with bortezomib on chymotrypsin-like activity of the core particle,"[1]; in vitro, FIG. 1D",synergizes with bortezomib
same,IC50,"[1]; read-out: IC50, inhibition of chymotrypsin-like activity of the core particle, FIG. 1B",19 nM
same,Cytotoxicity to non-cancerous Mcf10A cells,MCF-10A cells,refractory to the treatment
same,Polyubiquitinated proteins in lysates of treated cells,[6],accumulation of polyubiquitinated proteins
same,Effect on growth of multiple myeloma RPMI8226 cells,[7]; FIG. 3D right,efficiently prevented growth
same,IC50,"[7]; Homo sapiens, RPMI-8226, FIG. 3D, read-out: IC50, multiple myeloma cultured cells",59 nM
same,Effect on open-gate/closed-gate conformers of the core proteasome (AFM),[8]; B1 treatment (100 nM),shift toward higher abundance of the open gate conformers
same,Content of open-gate conformers in the treated core particle (AFM),[8],unusually high content of open-gate conformers
same,Effect on post-glutamyl peptidase of the core particle,[9],inhibits
same,Total proteasome activity in lysates of treated cells versus DMSO control,"[10]; 50 nM B1, model peptide substrate, FIG. 3F left",lower than in control cells
same,Partition of activities between core particle (20S) and 26S assembly,"[10]; 50 nM B1, non-denaturing gels, FIG. 3F right",shifted in the B1-treated cells toward more of the 20S and less of the 26S proteasomes
same,Cytotoxicity to MCF-7 cells,"MCF-7 cells; B1 alone, 40 nM, 24 hrs, trypan blue exclusion, FIG. 3D",cytotoxic
same,"Combination Index (CI) with bortezomib, MCF-7",MCF-7 cells; [11],below 1
"CO[C@@H](C[C@@H]1CC[C@@H](C)[C@](O)(C(=O)C(=O)N2CCCC[C@H]2C(=O)[O-])O1)/C(C)=C/C=C/C=C/[C@@H](C)C[C@@H](C)C(=O)[C@H](OC)[C@H](O)/C(C)=C/[C@@H](C)C(=O)/C=C/[C@H](C)C[C@@H]1CC[C@@H](O)[C@H](OC)C1.[Na+] [seco-rapamycin, reference compound]",Content of open-gate conformers in the treated core particle (AFM),[8],unusually high content of open-gate conformers
